According to patent publication US20260265305A1, “POLYPEPTIDE DERIVATIVE FOR ORAL DELIVERY” (Hangzhou Sciwind Biosciences Co., Ltd., priority 2023, published 2026):
Values joined by “and” are separate entries in the source; they are usually repeats but may differ in a detail not shown here. Identical values can stand only once. Numbered stars: 1 amine (or outer) side, 2 acyl side, 3 side chain; on linkers, the order of the positions; unused ones are H or OH. Peptide text beside a SMILES is read from it. * marks the point of attachment. C22 diacid = O=C(O)CCCCCCCCCCCCCCCCCCCCC(=O)*; C20 diacid = O=C(O)CCCCCCCCCCCCCCCCCCC(=O)*; C18 diacid = O=C(O)CCCCCCCCCCCCCCCCC(=O)*; γGlu = O=C(O)[C@H](CCC(=O)[*:2])N[*:1]; AEEA = NCCOCCOCC(=O)O

What was measured:
[1] = target: T1, calcitonin receptor (hCTR) (Homo sapiens, UniProt P30988); experiment: Calcitonin receptor agonism, CRE-luciferase assay in stably transfected CHO-K1/CALCR/Ga15 cells; format: cell-based; conditions: incubation of 24 hours; Table 4; read-out: EC50, activity against the calcitonin receptor in cells
T1 construct: host or cells: CHO-K1/CALCR/Ga15 cells, further stably transfected with a CRE-luciferase plasmid
T1 sequence (P30988 25-474): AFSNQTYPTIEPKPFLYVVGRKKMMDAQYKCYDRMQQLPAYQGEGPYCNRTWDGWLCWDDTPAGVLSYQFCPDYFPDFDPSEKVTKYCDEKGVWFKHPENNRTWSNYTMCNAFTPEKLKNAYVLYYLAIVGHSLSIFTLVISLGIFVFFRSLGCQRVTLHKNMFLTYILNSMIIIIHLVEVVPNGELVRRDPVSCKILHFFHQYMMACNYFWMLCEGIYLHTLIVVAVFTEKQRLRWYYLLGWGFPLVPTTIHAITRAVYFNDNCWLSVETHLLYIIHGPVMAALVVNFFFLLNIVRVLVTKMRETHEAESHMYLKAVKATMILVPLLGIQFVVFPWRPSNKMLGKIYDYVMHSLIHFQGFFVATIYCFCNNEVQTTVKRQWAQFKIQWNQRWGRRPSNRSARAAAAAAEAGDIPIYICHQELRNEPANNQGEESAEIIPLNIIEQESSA

[2] = Heat accelerated stability assay of polypeptide solutions (40° C., pH about 7.4), reversed phase chromatography; format: physicochemical; conditions: 40° C.; for Concentration change on 7 d / Concentration change on 26 d: pH about 7.4, 1 mg/mL; for Concentration change on 7 d / Purity change on 7 d: Day 7; for Concentration change on 26 d / Purity change on 26 d: Day 26; for Purity change on 7 d / Purity change on 26 d: reversed phase chromatography 214 nm; for Purity change on 7 d: purity on 7 d − purity on 0 d; for Purity change on 26 d: purity on 26 d − purity on 0 d
Description: A stability test chamber (BINDER GmbH), a 0.01 mg-readability balance (METTLER TOLEDO), a pH meter (METTLER TOLEDO), a biosafety cabinet (ESCO), T2G-II small-sized motor-driven capping machine (Changsha zhongya pharmaceutical equipment co. LTD), a high-speed refrigerated centrifuge (Eppendorf), a sterilizer cabinet (Shinva Medical), Agilent 1260 high-performance liquid chromatographer, and Sepax Bio-C18 4.6*250 mm 3 μm 200 Å reversed phase column were used.
Reagents and consumables included: ultrapure water (18.2 MΩ, self-made), acetonitrile (HPLC grade), trifluoroacetic acid (HPLC grade), sodium dihydrogen phosphate (pharmaceutical grade, Hunan Jiudian Hongyang Pharmaceutical Co., Ltd), hydrochloric acid (pharmaceutical grade, Hunan Er-Kang Pharmaceutical Co., Ltd), sodium hydroxide (Analytical Reagent grade, Hushi®, Sinopharm Chemical Reagent Co., Ltd), vials, rubber stoppers, disposable syringes, and sterile filters.
The lyophilized powder (1 mg/mL) of the polypeptide derivative prepared in accordance with the method of Example 1 was mixed with sodium dihydrogen phosphate (1.42 mg/mL) and dissolved in ultrapure water in the indicated mass-volume ratios. After adjusting pH to about 7.4 with hydrochloric acid/sodium hydroxide, the solution was filtered into a sterilized vial in a clean bench using a 0.22 μm sterile filter. The vial was then capped and placed into the stability test chamber at 40° C. Detections were made on Days 7 (7d) and 26 (26d), and during the assay, changes in the characteristics and properties of the polypeptide were observed and recorded. The sample was then centrifuged for 3 min at 10,000 rpm at 4° C., and the supernatant was transferred to a liquid phase sample vial for detecting the concentration and purity of the polypeptides using liquid phase chromatography described as below, wherein the concentration of the polypeptide=peak area/injection volume/extinction coefficient/60×flow rate, and the purity of the polypeptide=target peak area/total peak area×100%.
Conditions of the reversed phase chromatography Flow rate: 1.0 ml/min; Autosampler temperature: 15° C.; Column temperature: 25° C.; Detection wavelengths: 280 nm and 214 nm; Mobile phase A: 100% H2O+0.05% TFA; Mobile phase B: 100% ACN; and Gradient of elution listed in Table 6: […]

amylin receptor (hAMY3R) = target: T2, amylin receptor (hAMY3R) (Homo sapiens, UniProt O60896+P30988); experiment: Amylin receptor agonism testing, CRE-luciferase assay in stably transfected CHO-K1/Ga15/AMY3 cells; format: cell-based; conditions: incubation of 24 hours; Table 3; read-out: EC50, activity against the amylin receptor in cells
T2 construct: host or cells: CHO-K1/Ga15/AMY3 cells, further stably transfected with a CRE-luciferase plasmid
T2 sequence (P30988 25-474): T1 sequence (P30988 25-474)
T2 sequence (O60896 24-148): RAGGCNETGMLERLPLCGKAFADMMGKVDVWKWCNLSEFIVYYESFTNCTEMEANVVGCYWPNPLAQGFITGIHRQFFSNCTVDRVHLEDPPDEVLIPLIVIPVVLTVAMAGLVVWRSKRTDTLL
Description: The objective of this assay is to test the potency of the polypeptide derivatives in the present application on amylin and calcitonin receptors in vitro using a luciferase assay.
Using the standard protocol for construction of an amylin receptor/CRE-luc cell line, CHO-K1/Ga15/AMY3 cells (purchased from GenScript, with the calcitonin receptor and the receptor activity modifying peptide (RAMP) constructed already) were transfected with a plasmid containing a luciferase expression cassette driven by multiple copies of cAMP response elements (CREs). The cells were cultured in an F12 medium containing 200 ug/mL Zeocin, 2 ug/mL puromycin, 100 ug/mL hygromycin, and 400 ug/mL G418 to afford a stably transfected amylin receptor/CRE-luc cell line.
To each well of a white 96-well plate was added 50 μL of the tested sample solution at a respective concentration.
The stably transfected amylin receptor/CRE-luc CHO cells were resuspended in the growth medium at a certain density, and 50 μL of the cell suspension was added at a density of about 20,000 cells per well to the white 96-well plate containing the tested sample solution. After incubation of 24 hours at 37° C. and 5% CO2, 100 μL of a Luciferase substrate was added to each well, incubated for 3 minutes, and finally was tested for luminescence on SpectraMax L (Molecular Devices) with the software SoftMax Pro 7.0.3 GxP. A standard curve was plotted using the fluorescent intensities for calculation of EC50.

Row | Compound | EC50 [1] | Concentration change on 7 d [2] | Concentration change on 26 d [2] | Purity change on 7 d [2] | Purity change on 26 d [2] | EC50 (amylin receptor (hAMY3R))
1 | CC(C)C[C@H](NC(=O)[C@H](CCCNC(=N)N)NC(=O)CNC(=O)[C@H](CC(C)C)NC(=O)[C@@H](NC(=O)[C@H](C)NC(=O)[C@@H](NC(=O)[C@H](CO)NC(=O)[C@H](CC(C)C)NC(=O)[C@H](CCC(N)=O)NC(=O)[C@H](CO)NC(=O)[C@H](C)NC(=O)CC[C@H](NC(=O)CCCCCCCCCCCCCCCCCCCCC(=O)O)C(=O)O)[C@@H](C)O)C(C)C)C(=O)N[C@@H](CO)C(=O)N[C@@H](CC(=O)O)C(=O)N[C@@H](CCC(=O)O)C(=O)N[C@@H](CC(C)C)C(=O)N[C@@H](Cc1c[nH]cn1)C(=O)N[C@@H](CCCNC(=N)N)C(=O)N[C@@H](CC(C)C)C(=O)N[C@@H](CCC(N)=O)C(=O)N[C@@H](CC(=O)O)C(=O)N[C@@H](Cc1ccc(O)cc1)C(=O)N1CCC[C@H]1C(=O)N[C@@H](CCCNC(=N)N)C(=O)N[C@H](C(=O)N[C@@H](CC(=O)O)C(=O)N[C@H](C(=O)NCC(=O)N[C@@H](CO)C(=O)NCC(=O)N[C@@H](CO)C(=O)N1CCC[C@H]1C(N)=O)C(C)C)[C@@H](C)O [M7] ({C22 diacid-γGlu}-ASQLSTAVLGRLSDELHRLQDYPRTDVGSGSP-NH2) | 0.194 nM | No change (concentration change of less than 1% (denoted as “no change”)) | No change (concentration change of less than 1% (denoted as “no change”)) | No change | nearly no noticeable change in purity | 
2 | CC(C)C[C@H](NC(=O)[C@H](CCCNC(=N)N)NC(=O)CNC(=O)[C@H](CC(C)C)NC(=O)[C@@H](NC(=O)[C@H](C)NC(=O)[C@@H](NC(=O)[C@H](CO)NC(=O)[C@H](CC(C)C)NC(=O)[C@H](CCC(N)=O)NC(=O)[C@H](CO)NC(=O)[C@H](C)NC(=O)[C@H](CCC(=O)O)NC(=O)CCCCCCCCCCCCCCCCCCC(=O)O)[C@@H](C)O)C(C)C)C(=O)N[C@@H](CO)C(=O)N[C@@H](CC(=O)O)C(=O)N[C@@H](CCC(=O)O)C(=O)N[C@@H](CC(C)C)C(=O)N[C@@H](Cc1c[nH]cn1)C(=O)N[C@@H](CCCNC(=N)N)C(=O)N[C@@H](CC(C)C)C(=O)N[C@@H](CCC(N)=O)C(=O)N[C@@H](CC(=O)O)C(=O)N[C@@H](Cc1ccc(O)cc1)C(=O)N1CCC[C@H]1C(=O)N[C@@H](CCCNC(=N)N)C(=O)N[C@H](C(=O)N[C@@H](CC(=O)O)C(=O)N[C@H](C(=O)NCC(=O)N[C@@H](CO)C(=O)NCC(=O)N[C@@H](CO)C(=O)N1CCC[C@H]1C(N)=O)C(C)C)[C@@H](C)O [M10] ({C20 diacid}-EASQLSTAVLGRLSDELHRLQDYPRTDVGSGSP-NH2) |  | −2.290% | −10.562% | −1.66% | −5.98% | 
3 | CC(C)C[C@H](NC(=O)[C@H](CCCNC(=N)N)NC(=O)CNC(=O)[C@H](CC(C)C)NC(=O)[C@@H](NC(=O)[C@H](C)NC(=O)[C@@H](NC(=O)[C@H](CO)NC(=O)[C@H](CC(C)C)NC(=O)[C@H](CCC(N)=O)NC(=O)[C@H](CO)NC(=O)[C@H](C)NC(=O)COCCOCCNC(=O)COCCOCCNC(=O)COCCOCCNC(=O)COCCOCCNC(=O)COCCOCCNC(=O)COCCOCCNC(=O)COCCOCCNC(=O)COCCOCCNC(=O)CC[C@H](NC(=O)CCCCCCCCCCCCCCCCCCC(=O)O)C(=O)O)[C@@H](C)O)C(C)C)C(=O)N[C@@H](CO)C(=O)N[C@@H](CC(=O)O)C(=O)N[C@@H](CCC(=O)O)C(=O)N[C@@H](CC(C)C)C(=O)N[C@@H](Cc1c[nH]cn1)C(=O)N[C@@H](CCCNC(=N)N)C(=O)N[C@@H](CC(C)C)C(=O)N[C@@H](CCC(N)=O)C(=O)N[C@@H](CC(=O)O)C(=O)N[C@@H](Cc1ccc(O)cc1)C(=O)N1CCC[C@H]1C(=O)N[C@@H](CCCNC(=N)N)C(=O)N[C@H](C(=O)N[C@@H](CC(=O)O)C(=O)N[C@H](C(=O)NCC(=O)N[C@@H](CO)C(=O)NCC(=O)N[C@@H](CO)C(=O)N1CCC[C@H]1C(N)=O)C(C)C)[C@@H](C)O [M21] ({C20 diacid-γGlu-AEEA-AEEA-AEEA-AEEA-AEEA-AEEA-AEEA-AEEA}-ASQLSTAVLGRLSDELHRLQDYPRTDVGSGSP-NH2) |  | −1.388% | −4.522% | −1.66% | −2.01% | 0.044 nM
4 | CC(C)C[C@H](NC(=O)[C@H](CCCNC(=N)N)NC(=O)CNC(=O)[C@H](CC(C)C)NC(=O)[C@@H](NC(=O)[C@H](C)NC(=O)[C@@H](NC(=O)[C@H](CO)NC(=O)[C@H](CC(C)C)NC(=O)[C@H](CCC(N)=O)NC(=O)[C@H](CO)NC(=O)[C@H](C)NC(=O)COCCOCCNC(=O)COCCOCCNC(=O)CC[C@H](NC(=O)CCCCCCCCCCCCCCCCC(=O)O)C(=O)O)[C@@H](C)O)C(C)C)C(=O)N[C@@H](CO)C(=O)N[C@@H](CC(=O)O)C(=O)N[C@@H](CCC(=O)O)C(=O)N[C@@H](CC(C)C)C(=O)N[C@@H](Cc1c[nH]cn1)C(=O)N[C@@H](CCCNC(=N)N)C(=O)N[C@@H](CC(C)C)C(=O)N[C@@H](CCC(N)=O)C(=O)N[C@@H](CC(=O)O)C(=O)N[C@@H](Cc1ccc(O)cc1)C(=O)N1CCC[C@H]1C(=O)N[C@@H](CCCNC(=N)N)C(=O)N[C@H](C(=O)N[C@@H](CC(=O)O)C(=O)N[C@H](C(=O)NCC(=O)N[C@@H](CO)C(=O)NCC(=O)N[C@@H](CO)C(=O)N1CCC[C@H]1C(N)=O)C(C)C)[C@@H](C)O [M22] ({C18 diacid-γGlu-AEEA-AEEA}-ASQLSTAVLGRLSDELHRLQDYPRTDVGSGSP-NH2) |  |  | −5.493% | 2.59% | −2.19% | 0.015 nM
5 | D2: SEQ ID NO. 5 CSNLSTCVLGKLSQELHKLQTYPRTNTGSGTP-NH2, no modification, no fatty acid [reference compound] |  | −40% and −40.064% |  |  |  | 
6 | H-ASQLSTAVLGRLSQELHRLQDYPRTDVGSGSP-NH2 [M5] |  |  |  |  |  | 0.033 nM
7 | M19: SEQ ID NO. 4 ASQLSTAVLGRLSDELHRLQDYPRTDVGSGSP-NH2, N terminus, C20 diacid + γGlu + 4 AEEAs ({C20 diacid-γGlu-AEEA-AEEA-AEEA-AEEA}-ASQLSTAVLGRLSDELHRLQDYPRTDVGSGSP-NH2) |  |  | −1.589% | No change | nearly no noticeable change in purity | 
8 | M20: SEQ ID NO. 4 ASQLSTAVLGRLSDELHRLQDYPRTDVGSGSP-NH2, N terminus, C20 diacid + γGlu + 6 AEEAs ({C20 diacid-γGlu-AEEA-AEEA-AEEA-AEEA-AEEA-AEEA}-ASQLSTAVLGRLSDELHRLQDYPRTDVGSGSP-NH2) |  | No change (concentration change of less than 1% (denoted as “no change”)) | −3.662% | No change | −1.59% | 
